US7820623B2 (priority 2006, dated 2010)
Read-outs that look alike come from different tables or passages of the source. Bridge positions count the residues as written; N and C are the ends. Square brackets hold non-standard residues; d marks the D form. Peptide text beside a SMILES is read from it. 1Nal = N[C@@H](Cc1cccc2ccccc12)C(=O)O

Assays:
[1] = tested on: thapsigargin-induced IFN-g production in human whole blood; format: cell-based
[2] = tested on: thapsigargin-induced IL-2 production in human whole blood
[3] = read-out: Analogue Activity (IC50) WB/IFNg
[4] = read-out: Analogue Activity (IC50) WB/IL-2

Row | Compound | IC50 [1, 3] | IC50 [2, 4] | IC50 ([1]; read-out: Average IC50 IFNg) | IC50 ([2]; read-out: Average IC50 IL-2)
1 | CC[C@H](C)[C@@H]1NC(=O)[C@H](CCCCN)NC(=O)[C@@H](NC(=O)[C@H](CCCCN)NC(=O)[C@@H](NC(=O)[C@H](CC(N)=O)NC(=O)[C@@H](NC(=O)[C@@H](NC(=O)[C@@H](NC(=O)CN)C(C)C)[C@@H](C)CC)[C@@H](C)CC)C(C)C)CSSC[C@@H]2NC(=O)[C@H](CCCCN)NC(=O)CNC(=O)[C@H](Cc3ccccc3)NC(=O)[C@H](CCCNC(=N)N)NC(=O)[C@H](Cc3cccc4ccccc34)NC(=O)CNC(=O)[C@H](C)NC(=O)[C@H](CCCCN)NC(=O)[C@H](CCCCN)NC(=O)[C@@H]3CSSC[C@@H](C(=O)N[C@H](C(=O)N4CCC[C@H]4C(=O)N[C@@H](CCCCN)C(=O)O)[C@@H](C)O)NC(=O)[C@H](Cc4c[nH]cn4)NC(=O)[C@H](CSSC[C@H](NC(=O)[C@H](CCC(N)=O)NC(=O)[C@H](CCCNC(=N)N)NC(=O)[C@H](CO)NC1=O)C(=O)N[C@@H](CC(C)C)C(=O)N[C@@H](CCC(=O)O)C(=O)N1CCC[C@H]1C(=O)N3)NC(=O)[C@H](CCCCN)NC(=O)CNC(=O)[C@H](CC(N)=O)NC(=O)[C@H](CCSC)NC2=O [M23Nal] (H-GVIINVKCKISRQCLEPCKKAG[1Nal]RFGKCMNGKCHCTPK-OH; disulfide 8-28, 14-33, 18-35) | 1.11 nM | 0.581 nM | – | –
2 | CC[C@H](C)[C@@H]1NC(=O)[C@H](CCCCN)NC(=O)[C@@H](NC(=O)[C@H](CCCCN)NC(=O)[C@@H](NC(=O)[C@H](CC(N)=O)NC(=O)[C@@H](NC(=O)[C@@H](NC(=O)[C@@H](NC(=O)CN)C(C)C)[C@@H](C)CC)[C@@H](C)CC)C(C)C)CSSC[C@@H]2NC(=O)[C@H](CCCCN)NC(=O)CNC(=O)[C@H](Cc3ccccc3)NC(=O)[C@H](CCCNC(=N)N)NC(=O)[C@H](C)NC(=O)CNC(=O)[C@H](C)NC(=O)[C@H](CCCCN)NC(=O)[C@H](CCCCN)NC(=O)[C@@H]3CSSC[C@@H](C(=O)N[C@H](C(=O)N4CCC[C@H]4C(=O)N[C@@H](CCCCN)C(=O)O)[C@@H](C)O)NC(=O)[C@H](Cc4c[nH]cn4)NC(=O)[C@H](CSSC[C@H](NC(=O)[C@H](CCC(N)=O)NC(=O)[C@H](CCCNC(=N)N)NC(=O)[C@H](CO)NC1=O)C(=O)N[C@@H](CC(C)C)C(=O)N[C@@H](CCC(=O)O)C(=O)N1CCC[C@H]1C(=O)N3)NC(=O)[C@H](CCCCN)NC(=O)CNC(=O)[C@H](CC(N)=O)NC(=O)[C@H](CCSC)NC2=O [M23A] (H-GVIINVKCKISRQCLEPCKKAGARFGKCMNGKCHCTPK-OH; disulfide 8-28, 14-33, 18-35) | 0.275 nM | 0.275 nM | – | –
3 | CC[C@H](C)[C@@H]1NC(=O)[C@H](CCCCN)NC(=O)[C@@H](NC(=O)[C@H](CCCCN)NC(=O)[C@@H](NC(=O)[C@H](CC(N)=O)NC(=O)[C@H](C)NC(=O)[C@@H](NC(=O)[C@@H](NC(=O)CN)C(C)C)[C@@H](C)CC)C(C)C)CSSC[C@@H]2NC(=O)[C@H](CCCCN)NC(=O)CNC(=O)[C@H](Cc3ccccc3)NC(=O)[C@H](CCCNC(=N)N)NC(=O)[C@H](CCSC)NC(=O)CNC(=O)[C@H](C)NC(=O)[C@H](CCCCN)NC(=O)[C@H](CCCCN)NC(=O)[C@@H]3CSSC[C@@H](C(=O)N[C@H](C(=O)N4CCC[C@H]4C(=O)N[C@@H](CCCCN)C(=O)O)[C@@H](C)O)NC(=O)[C@H](Cc4c[nH]cn4)NC(=O)[C@H](CSSC[C@H](NC(=O)[C@H](CCC(N)=O)NC(=O)[C@H](CCCNC(=N)N)NC(=O)[C@H](CO)NC1=O)C(=O)N[C@@H](CC(C)C)C(=O)N[C@@H](CCC(=O)O)C(=O)N1CCC[C@H]1C(=O)N3)NC(=O)[C@H](CCCCN)NC(=O)CNC(=O)[C@H](CC(N)=O)NC(=O)[C@H](CCSC)NC2=O [I4A] (H-GVIANVKCKISRQCLEPCKKAGMRFGKCMNGKCHCTPK-OH; disulfide 8-28, 14-33, 18-35) | 0.0873 nM | 0.111 nM | – | –
4 | CC[C@H](C)[C@@H]1NC(=O)[C@H](CCCCN)NC(=O)[C@@H](NC(=O)[C@H](CCCCN)NC(=O)[C@H](Cc2cccc3ccccc23)NC(=O)[C@H](CC(N)=O)NC(=O)[C@@H](NC(=O)[C@@H](NC(=O)[C@@H](NC(=O)CN)C(C)C)[C@@H](C)CC)[C@@H](C)CC)CSSC[C@@H]2NC(=O)[C@H](CCCCN)NC(=O)CNC(=O)[C@H](Cc3ccccc3)NC(=O)[C@H](CCCNC(=N)N)NC(=O)[C@H](CCSC)NC(=O)CNC(=O)[C@H](C)NC(=O)[C@H](CCCCN)NC(=O)[C@H](CCCCN)NC(=O)[C@@H]3CSSC[C@@H](C(=O)N[C@H](C(=O)N4CCC[C@H]4C(=O)N[C@@H](CCCCN)C(=O)O)[C@@H](C)O)NC(=O)[C@H](Cc4c[nH]cn4)NC(=O)[C@H](CSSC[C@H](NC(=O)[C@H](CCC(N)=O)NC(=O)[C@H](CCCNC(=N)N)NC(=O)[C@H](CO)NC1=O)C(=O)N[C@@H](CC(C)C)C(=O)N[C@@H](CCC(=O)O)C(=O)N1CCC[C@H]1C(=O)N3)NC(=O)[C@H](CCCCN)NC(=O)CNC(=O)[C@H](CC(N)=O)NC(=O)[C@H](CCSC)NC2=O [V6Nal] (H-GVIIN[1Nal]KCKISRQCLEPCKKAGMRFGKCMNGKCHCTPK-OH; disulfide 8-28, 14-33, 18-35) | 2.46 nM | 1.78 nM | – | –
5 | CC[C@H](C)[C@@H]1NC(=O)[C@H](CCCCN)NC(=O)[C@@H](NC(=O)[C@H](CCCCN)NC(=O)[C@H](CCC(=O)O)NC(=O)[C@H](CC(N)=O)NC(=O)[C@@H](NC(=O)[C@@H](NC(=O)[C@@H](NC(=O)CN)C(C)C)[C@@H](C)CC)[C@@H](C)CC)CSSC[C@@H]2NC(=O)[C@H](CCCCN)NC(=O)CNC(=O)[C@H](Cc3ccccc3)NC(=O)[C@H](CCCNC(=N)N)NC(=O)[C@H](CCSC)NC(=O)CNC(=O)[C@H](C)NC(=O)[C@H](CCCCN)NC(=O)[C@H](CCCCN)NC(=O)[C@@H]3CSSC[C@@H](C(=O)N[C@H](C(=O)N4CCC[C@H]4C(=O)N[C@@H](CCCCN)C(=O)O)[C@@H](C)O)NC(=O)[C@H](Cc4c[nH]cn4)NC(=O)[C@H](CSSC[C@H](NC(=O)[C@H](CCC(N)=O)NC(=O)[C@H](CCCNC(=N)N)NC(=O)[C@H](CO)NC1=O)C(=O)N[C@@H](CC(C)C)C(=O)N[C@@H](CCC(=O)O)C(=O)N1CCC[C@H]1C(=O)N3)NC(=O)[C@H](CCCCN)NC(=O)CNC(=O)[C@H](CC(N)=O)NC(=O)[C@H](CCSC)NC2=O [V6E] (H-GVIINEKCKISRQCLEPCKKAGMRFGKCMNGKCHCTPK-OH; disulfide 8-28, 14-33, 18-35) | 0.068 nM | 0.048 nM | – | –
6 | CC[C@H](C)[C@@H]1NC(=O)[C@H](CCCCN)NC(=O)[C@@H](NC(=O)[C@H](CCCCN)NC(=O)[C@@H](NC(=O)[C@H](CC(N)=O)NC(=O)[C@@H](NC(=O)[C@@H](NC(=O)[C@@H](NC(=O)[C@H](C)N)C(C)C)[C@@H](C)CC)[C@@H](C)CC)C(C)C)CSSC[C@@H]2NC(=O)[C@H](CCCCN)NC(=O)CNC(=O)[C@H](Cc3ccccc3)NC(=O)[C@H](CCCNC(=N)N)NC(=O)[C@H](CCSC)NC(=O)CNC(=O)[C@H](C)NC(=O)[C@H](CCCCN)NC(=O)[C@H](CCCCN)NC(=O)[C@@H]3CSSC[C@@H](C(=O)N[C@H](C(=O)N4CCC[C@H]4C(=O)N[C@@H](CCCCN)C(=O)O)[C@@H](C)O)NC(=O)[C@H](Cc4c[nH]cn4)NC(=O)[C@H](CSSC[C@H](NC(=O)[C@H](CCC(N)=O)NC(=O)[C@H](CCCNC(=N)N)NC(=O)[C@H](CO)NC1=O)C(=O)N[C@@H](CC(C)C)C(=O)N[C@@H](CCC(=O)O)C(=O)N1CCC[C@H]1C(=O)N3)NC(=O)[C@H](CCCCN)NC(=O)CNC(=O)[C@H](CC(N)=O)NC(=O)[C@H](CCSC)NC2=O [G1A] (H-AVIINVKCKISRQCLEPCKKAGMRFGKCMNGKCHCTPK-OH; disulfide 8-28, 14-33, 18-35) | 0.119 nM | 0.122 nM | – | –
7 | GAIINVKCKISRQCLEPCKKAGMRFGKCMNGKCHCTPK [Ala-2 (SEQ ID No: 1401)] | – | – | 0.103 nM | 0.0884 nM
8 | CC[C@H](C)[C@@H]1NC(=O)[C@H](CCCCN)NC(=O)[C@@H](NC(=O)[C@H](CCCCN)NC(=O)[C@@H](NC(=O)[C@H](CC(N)=O)NC(=O)[C@@H](NC(=O)[C@@H](NC(=O)[C@H](CCC(=O)O)NC(=O)CN)[C@@H](C)CC)[C@@H](C)CC)C(C)C)CSSC[C@@H]2NC(=O)[C@H](CCCCN)NC(=O)CNC(=O)[C@H](Cc3ccccc3)NC(=O)[C@H](CCCNC(=N)N)NC(=O)[C@H](CCSC)NC(=O)CNC(=O)[C@H](C)NC(=O)[C@H](CCCCN)NC(=O)[C@H](CCCCN)NC(=O)[C@@H]3CSSC[C@@H](C(=O)N[C@H](C(=O)N4CCC[C@H]4C(=O)N[C@@H](CCCCN)C(=O)O)[C@@H](C)O)NC(=O)[C@H](Cc4c[nH]cn4)NC(=O)[C@H](CSSC[C@H](NC(=O)[C@H](CCC(N)=O)NC(=O)[C@H](CCCNC(=N)N)NC(=O)[C@H](CO)NC1=O)C(=O)N[C@@H](CC(C)C)C(=O)N[C@@H](CCC(=O)O)C(=O)N1CCC[C@H]1C(=O)N3)NC(=O)[C@H](CCCCN)NC(=O)CNC(=O)[C@H](CC(N)=O)NC(=O)[C@H](CCSC)NC2=O [V2E] (H-GEIINVKCKISRQCLEPCKKAGMRFGKCMNGKCHCTPK-OH; disulfide 8-28, 14-33, 18-35) | 0.184 nM | 0.097 nM | – | –
9 | CC[C@H](C)[C@H](NC(=O)[C@@H](NC(=O)CN)C(C)C)C(=O)N[C@H](C(=O)N[C@@H](CC(N)=O)C(=O)N[C@H](C(=O)N[C@@H](CCCCN)C(=O)N[C@H]1CSSC[C@@H]2NC(=O)[C@H](CCCCN)NC(=O)CNC(=O)[C@H](Cc3ccccc3)NC(=O)[C@H](CCCNC(=N)N)NC(=O)[C@H](CCSC)NC(=O)CNC(=O)[C@H](C)NC(=O)[C@H](CCCCN)NC(=O)[C@H](CCCCN)NC(=O)[C@@H]3CSSC[C@@H](C(=O)N[C@H](C(=O)N4CCC[C@H]4C(=O)N[C@@H](CCCCN)C(=O)O)[C@@H](C)O)NC(=O)[C@H](Cc4c[nH]cn4)NC(=O)[C@H](CSSC[C@H](NC(=O)[C@H](CCC(N)=O)NC(=O)[C@H](CCCNC(=N)N)NC(=O)[C@H](CO)NC(=O)[C@H](CCC(=O)O)NC(=O)[C@H](CCCCN)NC1=O)C(=O)N[C@@H](CC(C)C)C(=O)N[C@@H](CCC(=O)O)C(=O)N1CCC[C@H]1C(=O)N3)NC(=O)[C@H](CCCCN)NC(=O)CNC(=O)[C@H](CC(N)=O)NC(=O)[C@H](CCSC)NC2=O)C(C)C)[C@@H](C)CC [I10E] (H-GVIINVKCKESRQCLEPCKKAGMRFGKCMNGKCHCTPK-OH; disulfide 8-28, 14-33, 18-35) | 2.74 nM | 2.57 nM | – | –
